# Data taken from the NIST ThermoML archive (doi:10.1016/j.jct.2018.11.014).
# ± gives the expanded uncertainty stated by the source.
# Conditions: 101.33 kPa, Crystal, Vacuum adiabatic calorimetry
SMILES,molar entropy (10 K),molar entropy (20 K),molar entropy (30 K),molar entropy (40 K),molar entropy (50 K),molar entropy (60 K),molar entropy (70 K),molar entropy (80 K),molar entropy (90 K),molar entropy (100 K),molar entropy (110 K),molar entropy (120 K),molar entropy (130 K),molar entropy (140 K),molar entropy (150 K),molar entropy (160 K),molar entropy (170 K),molar entropy (180 K),molar entropy (190 K),molar entropy (200 K),other results
O=C(CO)[C@@H](O)[C@@H](O)[C@H](O)CO [D-(-)-tagatose],0.24 ± 0.02 J/K/mol,2.37 ± 0.04 J/K/mol,6.67 ± 0.12 J/K/mol,12.43 ± 0.2 J/K/mol,19.05 ± 0.3 J/K/mol,26.17 ± 0.4 J/K/mol,33.58 ± 0.52 J/K/mol,41.15 ± 0.63 J/K/mol,48.83 ± 0.78 J/K/mol,56.57 ± 0.89 J/K/mol,64.33 ± 1 J/K/mol,72.1 ± 1.1 J/K/mol,79.86 ± 1.2 J/K/mol,87.6 ± 1.4 J/K/mol,95.33 ± 1.5 J/K/mol,103.03 ± 1.6 J/K/mol,110.71 ± 1.7 J/K/mol,118.38 ± 1.8 J/K/mol,126.03 ± 1.9 J/K/mol,133.66 ± 2 J/K/mol,molar entropy (210 K): 141.29 ± 2.1 J/K/mol; molar entropy (220 K): 148.91 ± 2.3 J/K/mol; molar entropy (230 K): 156.53 ± 2.4 J/K/mol; molar entropy (240 K): 164.14 ± 2.5 J/K/mol; molar entropy (250 K): 171.76 ± 2.6 J/K/mol; molar entropy (260 K): 179.37 ± 2.7 J/K/mol; molar entropy (270 K): 187 ± 2.8 J/K/mol; molar entropy (280 K): 194.64 ± 3 J/K/mol; molar entropy (290 K): 202.3 ± 3.1 J/K/mol; molar entropy (298.15 K): 208.54 ± 3.2 J/K/mol; molar entropy (300 K): 209.96 ± 3.2 J/K/mol; molar entropy (310 K): 217.63 ± 3.3 J/K/mol; molar entropy (320 K): 225.31 ± 3.4 J/K/mol; molar entropy (330 K): 232.99 ± 3.5 J/K/mol
O=C(CO)[C@@H](O)[C@H](O)[C@H](O)CO [D-fructose],0.22 ± 0.02 J/K/mol,2.49 ± 0.05 J/K/mol,7.15 ± 0.12 J/K/mol,13.3 ± 0.21 J/K/mol,20.28 ± 0.32 J/K/mol,27.72 ± 0.43 J/K/mol,35.42 ± 0.54 J/K/mol,43.25 ± 0.66 J/K/mol,51.17 ± 0.81 J/K/mol,59.14 ± 0.93 J/K/mol,67.11 ± 1.1 J/K/mol,75.09 ± 1.2 J/K/mol,83.05 ± 1.3 J/K/mol,91 ± 1.4 J/K/mol,98.92 ± 1.5 J/K/mol,106.81 ± 1.6 J/K/mol,114.68 ± 1.8 J/K/mol,122.52 ± 1.9 J/K/mol,130.34 ± 2 J/K/mol,138.14 ± 2.1 J/K/mol,molar entropy (210 K): 145.91 ± 2.2 J/K/mol; molar entropy (220 K): 153.67 ± 2.3 J/K/mol; molar entropy (230 K): 161.42 ± 2.5 J/K/mol; molar entropy (240 K): 169.16 ± 2.6 J/K/mol; molar entropy (250 K): 176.89 ± 2.7 J/K/mol; molar entropy (260 K): 184.62 ± 2.8 J/K/mol; molar entropy (270 K): 192.35 ± 2.9 J/K/mol; molar entropy (280 K): 200.07 ± 3 J/K/mol; molar entropy (290 K): 207.79 ± 3.1 J/K/mol; molar entropy (298.15 K): 214.09 ± 3.2 J/K/mol; molar entropy (300 K): 215.52 ± 3.3 J/K/mol; molar entropy (310 K): 223.26 ± 3.4 J/K/mol; molar entropy (320 K): 231.02 ± 3.5 J/K/mol; molar entropy (330 K): 238.78 ± 3.6 J/K/mol
O=C(CO)[C@H](O)[C@H](O)[C@H](O)CO [D-psicose],0.25 ± 0.02 J/K/mol,2.96 ± 0.05 J/K/mol,8.19 ± 0.14 J/K/mol,14.69 ± 0.23 J/K/mol,21.82 ± 0.34 J/K/mol,29.28 ± 0.45 J/K/mol,36.93 ± 0.57 J/K/mol,44.67 ± 0.68 J/K/mol,52.46 ± 0.83 J/K/mol,60.26 ± 0.95 J/K/mol,68.06 ± 1.1 J/K/mol,75.83 ± 1.2 J/K/mol,83.57 ± 1.3 J/K/mol,91.28 ± 1.4 J/K/mol,98.95 ± 1.5 J/K/mol,106.58 ± 1.6 J/K/mol,114.19 ± 1.8 J/K/mol,121.76 ± 1.9 J/K/mol,129.31 ± 2 J/K/mol,136.83 ± 2.1 J/K/mol,molar entropy (210 K): 144.33 ± 2.2 J/K/mol; molar entropy (220 K): 151.81 ± 2.3 J/K/mol; molar entropy (230 K): 159.28 ± 2.4 J/K/mol; molar entropy (240 K): 166.73 ± 2.5 J/K/mol; molar entropy (250 K): 174.17 ± 2.6 J/K/mol; molar entropy (260 K): 181.61 ± 2.8 J/K/mol; molar entropy (270 K): 189.03 ± 2.9 J/K/mol; molar entropy (280 K): 196.45 ± 3 J/K/mol; molar entropy (290 K): 203.86 ± 3.1 J/K/mol; molar entropy (298.15 K): 209.9 ± 3.2 J/K/mol; molar entropy (300 K): 211.27 ± 3.2 J/K/mol; molar entropy (310 K): 218.67 ± 3.3 J/K/mol; molar entropy (320 K): 226.07 ± 3.4 J/K/mol; molar entropy (330 K): 233.48 ± 3.5 J/K/mol
